Assay [1] has as its target T1, Plasminogen activator inhibitor 1 (Homo sapiens, UniProt P05121). Put plainly: Enzymatic Assay. As to conditions: pH 7.8; 23 °C.
Assay [2] addresses T1, Plasminogen activator inhibitor 1. Briefly: Enzyme activity assay using human and murine PAI-1. As to conditions: pH 7.8.
The target of assay [3] is Plasminogen activator inhibitor 1 (Mus musculus, UniProt P22777). Put plainly: Enzymatic Assay. As to conditions: pH 7.8; 23 °C.

The molecule `O=C(O[C@@H]1Cc2c(O)cc(O)cc2O[C@@H]1c1cc(O)c(O)c(O)c1)c1cc(O)c(O)c(O)c1` [(-)-Epigallocatechin-3-o-gallate] displayed an IC50 in assay [1] of 0.091 µM.
Regarding `O=C(OCCOC(=O)c1cc(O)c(O)c(O)c1)c1cc(O)c(O)c(O)c1` [CDE-008], the IC50 stood at 44 nM in assay [2] and 162 nM in assay [3].
The matching figures for `O=C(O[C@H]1CCCC[C@H]1OC(=O)c1cc(O)c(O)c(O)c1)c1cc(O)c(O)c(O)c1` [CDE-031]: 20 nM and 132 nM.
Take `O=C(O[C@@H]1CCCC[C@H]1OC(=O)c1cc(O)c(O)c(O)c1)c1cc(O)c(O)c(O)c1` [CDE-034]: the IC50 in assay [2] turned out to be 116 nM; in assay [3], 644 nM.
As for `O=C(Oc1ccccc1OC(=O)c1cc(O)c(O)c(O)c1)c1cc(O)c(O)c(O)c1` [CDE-056], the IC50 in assay [2] came out at 74 nM; in assay [3], 758 nM.
As for `O=C(OCC(COC(=O)c1cc(O)c(O)c(O)c1)OC(=O)c1cc(O)c(O)c(O)c1)c1cc(O)c(O)c(O)c1` [CDE-082], the IC50 in assay [2] worked out at 14 nM; in assay [3] it was 79 nM.
`O=C(Oc1cc(O)cc2c1C[C@@H](OC(=O)c1cc(O)c(O)c(O)c1)[C@@H](c1cc(O)c(O)c(O)c1)O2)c1cc(O)c(O)c(O)c1` [Epigallocatechin-3,5-Digallate, C] came in with an IC50 in assay [1] of 0.33 µM. This lies in the sub-micromolar range.
Regarding `O=C(O)c1cc(O)c(O)c(O)c1` [Gallic Acid, F], the midpoint of inhibition in assay [1], the IC50, lay at 6.6 µM.
In the case of `O=C1c2ccc(O)c(O)c2C(=O)c2c(O)ccc(O)c21` [Quinalizarin, E], the IC50 in assay [1] worked out at 4.4 µM.
On to `Oc1c(Cl)cc(Cl)c(Cl)c1Cc1c(O)c(Cl)cc(Cl)c1Cl` [SMR000058356], for which the midpoint of inhibition in assay [1], the IC50, lay at 3.8 µM.
For the molecule `O=C(O)c1cc(O)c2c(c1)[C@H]([C@H]1c3cc(C(=O)O)cc(O)c3C(=O)c3c(O[C@@H]4O[C@H](CO)[C@@H](O)[C@H](O)[C@H]4O)cccc31)c1cccc(O[C@@H]3O[C@H](CO)[C@@H](O)[C@H](O)[C@H]3O)c1C2=O` [Sennoside A, G], inhibition in assay [1] was half-maximal at 51 µM (IC50).
With `O=C(OCC1OC(OC(=O)c2cc(O)c(O)c(OC(=O)c3cc(O)c(O)c(O)c3)c2)C(OC(=O)c2cc(O)c(O)c(OC(=O)c3cc(O)c(O)c(O)c3)c2)C(OC(=O)c2cc(O)c(O)c(OC(=O)c3cc(O)c(O)c(O)c3)c2)C1OC(=O)c1cc(O)c(O)c(OC(=O)c2cc(O)c(O)c(O)c2)c1)c1cc(O)c(O)c(OC(=O)c2cc(O)c(O)c(O)c2)c1` (centres undefined) [Tannic Acid, A], the IC50 is 6.6 nM in assay [2], 4.1 nM in assay [3] and 0.007 µM in assay [1].

As a reminder, the IC50 is the concentration that gives 50% inhibition. A lower IC50 goes with inhibition by little substance.

These data come from BindingDB's records for doi:10.1074/jbc.M109.067967 (University of Michigan, 2010).
